Results taken from patent US20200254020A1, “Methods and Compositions for Modulating the WNT-Signaling Pathway as Treatments for Inflammatory Diseases” (UNIVERSITY OF SOUTH CAROLINA, priority 2019, published 2020).

Assays:
Assay type in all cases: cell-based, human
WNT signaling pathway = test: Blocking WNT signaling with IWR-1 in PMA-activated PBMCs, IFNγ expression; details: 10 μM IWR-1, 200 nM PMA
Description: To investigate whether WNT10B was directly responsible for the upregulation of IFNγ expression, the WNT signaling pathway was blocked using an inhibitor of WNT response-1 (IWR-1, Sigma-Aldrich, St. Louis, Mo., cat # I0161). IWR-1 inhibits WNT signaling by stabilizing AXIN1 and prevents its degradation. AXIN1 is an inhibitor of WNT signaling pathway30. PBMCs (2×106) from healthy controls were cultured overnight (˜18 hours) with 10 LM of IWR-1 in separate wells of a 96-well culture plate in 200 μl complete RPMI medium. The following day, PMA and IWR-1 (in a 10 μl volume) were added to the culture to reach a final concentration of 200 nM PMA and 10 μM IWR-1, respectively. After 6 hours, WNT10B was added to the designated wells. Cells were harvested after 24 and 48 hours of adding WNT10B for total RNA extraction. Culture supernatant was collected for ELISA. ELISA for human IFNγ was performed on culture supernatants. The kit for ELISA was purchased from BioLegend Inc. (CA, USA) and assay was performed following the manufacturer's instructions. Reading for OD was performed in a Victor2TM, 1420 Multilabel Counter (Perkin Elmer, USA) plate reader.

WNT10B = test: Micro-RNA mimic assay: transfection of THP1 cells, WNT10B mRNA (qRT-PCR) and protein (western blot); details: 5 pmol per well mimic
Description: THP1 cells obtained from ATCC were cultured in complete RPMI medium containing 10% FBS, penicillin, and streptomycin, HEPES buffer and 2-mercaptoethanol. The incubation condition was at 37° C. and 5% CO2.
To investigate whether hsa-miR-7113-5p regulated expression of WNT10B, miRNA mimic transfection studies were performed in THP1 cells. Mimics and inhibitors of the miRNA were obtained from Qiagen Inc. and transfected into the cells by employing Lipofectamine RNAiMAX (Invitrogen, ThermoFisher Scientific, USA). One day prior to transfection, 2×10^5 THP1 cells were plated in a 24-well plate in 5001l complete RPMI medium. Mimic, inhibitor, and scrambled oligos were then added at an amount of 5 pmol per well. Cells were cultured for the indicated time after transfection and harvested for RNA and protein isolation. RNA samples were used for qRT-PCR based quantification of mRNAs and miRNAs. Whole-cell lysates were used for western blot analysis of miRNA target protein.
For the Western blot, anti-human-WNT10B was purchased from SIGMA-ALDRICH (cat # PRS4619). […] The total protein was not pre-quantified for loading onto the SDS-PAGE as the protein amount was to be normalized using an internal control. […] Protein bands were detected in a LI-COR blot detection system (Li-Cor Inc, Nebraska, USA).

PBMCs = test: WNT10B signaling pathway initiation: rh-WNT10B added to PBMC cultures, proinflammatory gene expression and IFNγ ELISA; details: for expression of IFNγ at mRNA level / expression of Tbx-21 at mRNA level: vs un-activated PBMCs or PMA activated PBMCs without rh-WNT10B
Description: To analyze whether WNT 10B could influence the expression of proinflammatory genes, WNT signaling was initiated by adding recombinant human (rh)-WNT10B in PBMCs cultures. The PBMCs were isolated from healthy human individuals. Two million cells were cultured in 200 μl medium in a 96-well tissue culture plates as follows: First, the PBMCs were stimulated with Phorbol 12-myristate 13-acetate (PMA) (200 nM) for 6 hours following which, 200 ng/ml rh-WNT10B was added. Then, the PBMCs were harvested after 24 and 48 hours and used for RNA and whole cell lysate (WCL) extraction for further analysis. The culture supernatants were also collected for ELISA to detect IFNγ. The following combinations were used as controls: 1) PBMCs+PMA without WNT10B and 2) PBMCs+WNT10B without PMA.
Before activation of cells and to see whether pre-exposure of cells to WNT10B can influence inflammatory gene expression, WNT10B (200 ng/ml) was first added in all the culture with PBMCs. After 24 hours, PMA (200 nM) was added to activate the cells. The following condition was used for the control: PBMCs+WNT10B without PMA. The cells were then harvested 24 hours after addition of PMA.
To test if chronic presence of WNT 10B alone (without stimulation with PMA) can lead to increased expression of inflammatory genes in the PBMCs, PBMCs (2×10^6 cells/well, in 200 μl, in a 96-well plate) were cultured with rh-WNT10B (200 ng/ml) for 96 hours. Additional rh-WNT10B was added after every 24 hours of culture. Cells were harvested every 24 hours for RNA and whole-cell lysate isolation. Supernatants were also collected for performing ELISA.
ELISA for human IFNγ was performed on culture supernatants. The kit for ELISA was purchased from BioLegend Inc. (CA, USA) and assay was performed following the manufacturer's instructions. Reading for OD was performed in a Victor2TM, 1420 Multilabel Counter (Perkin Elmer, USA) plate reader.

[1] = PMA (200 nM) activated PBMCs, 200 ng/ml rh-WNT10B, 24 hours
[2] = PMA (200 nM) activated PBMCs, 200 ng/ml rh-WNT10B, 48 hours

For `O=C(Nc1cccc2cccnc12)c1ccc(N2C(=O)C3C(C2=O)[C@H]2C=C[C@@H]3C2)cc1` (stereo partly shown) [IWR-1, 4-(1,3,3a,4,7,7a-Hexahydro-1,3-dioxo-4,7-methano-2H-isoindol-2-yl)-N-8-quinolinyl-benzamide], which “expression of IFNγ and other proinflammatory genes upon addition of WNT10B” value (WNT signaling pathway; WNT10B added after 6 hours) is on record?
Its value is “did not lead to increased expression”.

And the “expression of IFNγ” value (WNT signaling pathway; compared to cells activated with PMA only)?
Its value is “significantly downregulated”.

How did the “level of WNT10B mRNA” value (WNT10B; qRT-PCR, compared to scrambled miRNA and miRNA-7113-5p-inhibitor treated groups) turn out when “mimics of hsa-miR-7113-5p: Mimic of miRNA hsa-miR-7113-5p (UCCAGGGAGACAGUGUGUGAG, SEQ ID NO: 2) obtained from Qiagen Inc. (listed as RNA, chemistry not given here; listed as Homo sapiens)” was run?
Its value is “Significant reduction”.

And the “level of WNT10B protein” value (WNT10B; western blot of whole-cell lysate after 72 hours, compared to scrambled miRNA and inhibitor groups)?
Its value is “Significant reduction”.

“rh-WNT10B: recombinant human (rh)-WNT10B added to PBMC cultures to initiate WNT signaling” was tested. Which “protein level of IFNγ” value (PBMCs; PMA (200 nM) activated PBMCs, 200 ng/ml rh-WNT10B, 24 hours, ELISA on culture supernatant) did it give?
The value was “significant increase”.

What about the “expression of IFNγ at mRNA level” value (PBMCs; [1]) of the same molecule?
Its value is “significant increase”.

And the “expression of Tbx-21 at mRNA level” value (PBMCs; [1])?
Its value is “significant increase”.

And the “expression of IFNγ at mRNA level” value (PBMCs; [2])?
The value was “significant increase”.

What about the “expression of Tbx-21 at mRNA level” value (PBMCs; [2]) of the same molecule?
Its value is “significant increase”.

And the “induction of inflammatory genes, including STAT3, STAT4, or IFNγ” value (PBMCs; rh-WNT10B (200 and 500 ng/ml) alone added to naïve PBMCs, without PMA)?
The value was “did not induce any inflammatory genes”.
